Measured values as given in patent publication US20180201594A1, “Compound pac-1 or salt thereof and pharmaceutical composition comprising same” (priority 2015, published 2018).

How the values were obtained:
in vivo = format: in vivo; conditions: both sexes, ICR, mouse, in vivo, po
Experimental: (§1) Experimental material: ZYS-1
(§2) Experimental animals and feeding conditions: ICR mice, half male and half female. Body weight 20±2 g, provided by Beijing Weitonglihua Experimental Animal Technology Co., Ltd., SPF grade feeding, certificate: SCXK (Beijing) 2006-0009. Particulate feed for mouse breeding was provided by Beijing Ke'ao Xieli Feed Co., Ltd. Animals were housed in barrier-level (Grade 2) animal lab in Beijing Anzhen Hospital, fluorescent lighting, 12 h light and dark cycle, room temperature 22˜24 ? , humidity 40-47%, air supply 10-12 times/h, Laboratory license number: SYXK (Beijing) 2005-0028. Mice were housed in clear plastic boxes with 5 per cage separated by gender.
(§3) Preparation method of test drug: A white powder of ZYS-1 was placed in a mortar to be finely ground. The drug was accurately weighed before use, which was formulated with 0.5% CMC-Na to reach the desired concentration.
(§4) Animals grouping: After fasting (except for water) for 11 h, according to body weight, animals were randomly divided into groups of 10 with 5 males and 5 females. There were 8 groups in total. […]. One-time intragastric administration was used in the experiment. The negative control group was orally administered an equal volume of 0.5% CMC-Na. The animals started feeding at 3 hours after administration.
(§5) Observed indicators: immediately after administration, the observation of the responses of the animals to drugs (such as: general performance, respiration, activity, with or without convulsions, righting reflex, pain reflex, response to external stimuli and other indicators) was started. After observing and recording the symptom of toxic reaction, the time and duration of toxicity, recovery time, and the time of animal death. After the animal was dead, it was immediately grossly dissected, visually observing each of the main organs (heart, liver, spleen, lung and kidney, stomach) to see if there was congestion, increased volume, hardens, discoloration. The survival animals were observed and recorded day by day whether there was delayed toxicity reaction and delayed death within 7 days, and weigh and feed the animals once every 2 days. After finishing the 7 day's observation, the survival animals were grossly dissected and the situations of the main organs were observed. LD50 was calculated according to the number of animal deaths in each group.

ICR mice = experiment: in vivo; format: in vivo
Experimental: as §1, §2, §3, §4, §5

HT-1080 cells = experiment: HT-1080 cell invasion (Transwell, matrigel); format: cell-based, human
Experimental: The matrigel was thawed at 4° C. overnight and diluted with serum-free medium precooled at 4° ? t 1:2. 30 μL of the diluted matrigel was added vertically in the center of the bottom of the upper chamber, allowed to stand at r.m. for 20 min, and then incubated at 37° C. for 60 min. It was observed under the microscope until gelling, hydrated with the serum-free medium for use. The treated tumor cells with drugs for 48 h were digested and collected, and then the cells were suspended with serum free medium. The cell intensity was adjusted into 2.5×10^5 cells/mL, and kept cultured in the incubator for another 24 h. The upper chamber was taken, with methanol fixation for 30 min, dyed with Giemsa stain for 30 min, rinsed with clean water twice. The cells on the bottom membrane surface of the upper chamber were carefully wiped off with a wet cotton swab, dried in the air. With the bottom up, they were transferred onto glass slide and sealed with neutral gum. Under the microscope, nine random fields were taken and the transmembrane cells therein were counted. The average values were statistically calculated.

NF-κB = NF-κB protein expression in HGC-27 cells (immunofluorescence); format: cell-based; conditions: n = 6
Experimental: The sterilized cell transfer membrane was taken and placed into a 24-well plate, which was seeded with 1 mL (1×10^5 cells/mL) cell suspension, and cultured for 24 h. Drug-containing medium was added, The negative control groups and administration groups were set, with the experimental groups intervened for 24-48 h. The plate was washed with PBS, and fixed with 4% paraformaldehyde for 15 min. It was treated with 0.1% TritonX-100, and washed with PBS, blocked with 1:10 diluted normal serum blocking solution for 15 min. The plate was added 1:100 diluted primary antibody, placed at 4° C. overnight. The plate was washed with PBS, to which 1:100 diluted secondary antibodies was added and incubated at room temperature for 30 min. The plate was washed with PBS, to which 1:100 diluted SABC-FITC was added, and re-incubated at room temperature for additional 30 min. The unbound FITC was washed with PBS. We observed and taken pictures under fluorescence microscope, and analyzed the fluorescence intensity by Bioflux Montage software. 6 fields were selected randomly under microscope for each group and the integral optical density value of cells was calculated.

[1] = system: Murine Lewis lung carcinoma cell line; experiment: Spontaneous metastatic cancer in mice (Lewis lung carcinoma); conditions: for Inhibition rate of metastasis loci / Metastasis rate / Number of lung (metastasis loci) / Tumor weight / tumor inhibition rate: intragastric administration
Experimental: The tumors growed to 1000 mm^3 and then were randomly divided into groups for adminstration, the groups were treated after three weeks. A total of 4 groups including ZYS-1 high, medium and low (100, 50, 25 mg/kg/d, intragastric administration) and positive control (gefitinib 100 mg/kg/d, intragastric administration) groups were set. The efficacy of ZYS-1 was evaluated in terms of general survival status (food intake, activity, hair etc.), tumor inhibition rate and metastasis inhibition rate.
The curve of tumor growth was plotted. On the next day after completing the treatment cycle, the animal was weighed. After collecting the blood, the animal was sacrificed. The tumor tissue was stripped, weighed, and the tumor inhibition rate was calculated. Store at −80 ? .
Metastasis rate=Number of mice with metastasis/Total number of mice×100%
Inhibition rate of metastasis loci=(average number of metastasis loci in the control group−average number of metastasis loci in the experimental group)/average number of metastasis loci in the control group×100%

[2] = both, ICR, mouse, in vivo, 7 days
[3] = one-time intragastric administration, mice

C=CCc1cccc(/C=N/NC(=O)CN2CCN(Cc3ccccc3)CC2)c1O [ZYS-1, 1-Piperazineacetic acid, 4-(phenylmethyl)-2-[[2-hydroxy-3-(2-propen-1-yl)phenyl]methylene]]
LD50 at 7 days (in vivo; LD50 95% confidence limit): 1090 to 2290 mg/kg
LD50 at 7 days (in vivo; LD50 dose): 1670 mg/kg
0% mortality dose (ICR mice; [2]): 343 mg/kg
non-significant toxic reaction dose (ICR mice; [2]): 343 mg/kg
neurotoxicity, ZYS-1 compared with PAC-1 (ICR mice; both, ICR, mouse, in vivo, po, 7 days): Comparing the experimental results of acute toxicity of ZYS-1 and PAC-1, it can be seen that ZYS-1 has lower neurotoxicity.
time for most survival animals to return to normal after administration (ICR mice; [3]): ≤ 12 h
time of death after administration (mainly) (ICR mice; [3]): ≤ 6 h
numbers of invasive cells (HT-1080 cells; 2 μM and 4 μM administration groups): smaller than those from the control group
numbers of invasive cells (HT-1080 cells; 8 μM administration group): No cell from 8 μM administration group invaded into the lower chamber
NF-κB protein expression (integral optical density value) (NF-κB; 4 μM): 43.83 ± 1.06
NF-κB protein expression (integral optical density value) (NF-κB; 8 μM): 40.94 ± 0.46
Inhibition rate of metastasis loci ([1]; 25 mg/kg/d): 54.68%
Metastasis rate ([1]; 25 mg/kg/d): 100%
Number of lung (metastasis loci) ([1]; 25 mg/kg/d): 6.3 ± 3.3
Tumor weight ([1]; 25 mg/kg/d): 1.9579 ± 0.8346 g
tumor inhibition rate ([1]; 25 mg/kg/d): 50.63%
Inhibition rate of metastasis loci ([1]; 50 mg/kg/d): 61.15%
Metastasis rate ([1]; 50 mg/kg/d): 100%
Number of lung (metastasis loci) ([1]; 50 mg/kg/d): 5.4 ± 2.6
Tumor weight ([1]; 50 mg/kg/d): 1.5844 ± 0.8288 g
tumor inhibition rate ([1]; 50 mg/kg/d): 60.05%
Metastasis rate ([1]; 100 mg/kg/d): 100%
Number of lung (metastasis loci) ([1]; 100 mg/kg/d): 3.8 ± 1.9
Tumor weight ([1]; 100 mg/kg/d): 1.0209 ± 0.7332 g
tumor inhibition rate ([1]; 100 mg/kg/d): 74.26%
Hair Condition ([1]; high and medium dose (100, 50 mg/kg/d), tumor-bearing mice): shiny coat
